Reference: article PMC10311525, “Restricting Promiscuity of Plant Flavonoid 3′-Hydroxylase and 4′-O-Methyltransferase Improves the Biosynthesis of (2S)-Hesperetin in E. coli” (Journal of Agricultural and Food Chemistry, 2023)

Assays:
Test in all cases: whole-cell conversion, HPLC
Type in all cases: cell-based
[1] = molecular target: T1, MpOMT (Mentha x piperita, UniProt Q6VMV8, S142A); details: 100 mg/L fed, 12 h, 23 °C; product (2S)-hesperetin
T1 construct: gene OMT4

[2] = molecular target: T2, MpOMT (Mentha x piperita, UniProt Q6VMV8, F133A); details: 100 mg/L fed, 12 h, 23 °C; product (2S)-hesperetin
T2 construct: gene OMT4
T2 sequence (Q6VMV8 whole entry F133A): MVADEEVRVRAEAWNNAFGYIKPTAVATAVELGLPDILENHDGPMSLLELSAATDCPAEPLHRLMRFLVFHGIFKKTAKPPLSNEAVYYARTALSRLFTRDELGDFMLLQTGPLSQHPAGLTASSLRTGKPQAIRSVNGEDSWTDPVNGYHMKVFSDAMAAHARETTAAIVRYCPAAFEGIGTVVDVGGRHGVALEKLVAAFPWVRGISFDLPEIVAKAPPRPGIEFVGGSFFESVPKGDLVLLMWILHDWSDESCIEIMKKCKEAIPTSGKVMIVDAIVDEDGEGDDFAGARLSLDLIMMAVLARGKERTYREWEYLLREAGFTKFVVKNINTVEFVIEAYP

[3] = molecular target: T3, trThF3′H with CPR (Tricyrtis hirta, UniProt B9A9Y6); details: 100 mg/L fed, 12 h, 23 °C; product (2S)-eriodictyol; full-length CPR co-expressed
T3 construct: gene F3'H; 24-aa N-terminally truncated F3'H co-expressed with full-length Arabidopsis thaliana CPR from pETDuet-1 (pGH10) in E. coli BL21(DE3); whole-cell conversion; with NADPH--cytochrome P450 reductase 2 (Arabidopsis thaliana)
T3 sequence (B9A9Y6 25-505): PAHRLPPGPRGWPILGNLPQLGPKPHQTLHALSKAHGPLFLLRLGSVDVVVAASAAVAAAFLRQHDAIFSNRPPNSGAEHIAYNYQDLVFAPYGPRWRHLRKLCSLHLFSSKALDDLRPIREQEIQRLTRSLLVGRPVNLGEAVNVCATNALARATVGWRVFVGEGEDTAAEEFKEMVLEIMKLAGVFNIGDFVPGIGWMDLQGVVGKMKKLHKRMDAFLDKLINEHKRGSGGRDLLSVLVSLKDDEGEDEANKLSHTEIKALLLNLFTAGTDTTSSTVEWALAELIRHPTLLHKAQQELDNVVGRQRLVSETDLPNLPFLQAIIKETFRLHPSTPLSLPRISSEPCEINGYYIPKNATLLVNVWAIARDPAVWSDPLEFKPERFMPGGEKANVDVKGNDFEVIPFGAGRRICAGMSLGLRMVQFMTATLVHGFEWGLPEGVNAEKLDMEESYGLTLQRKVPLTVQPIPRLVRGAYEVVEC
T3 sequence (Q9SUM3 whole entry partner, the tested form may be a part): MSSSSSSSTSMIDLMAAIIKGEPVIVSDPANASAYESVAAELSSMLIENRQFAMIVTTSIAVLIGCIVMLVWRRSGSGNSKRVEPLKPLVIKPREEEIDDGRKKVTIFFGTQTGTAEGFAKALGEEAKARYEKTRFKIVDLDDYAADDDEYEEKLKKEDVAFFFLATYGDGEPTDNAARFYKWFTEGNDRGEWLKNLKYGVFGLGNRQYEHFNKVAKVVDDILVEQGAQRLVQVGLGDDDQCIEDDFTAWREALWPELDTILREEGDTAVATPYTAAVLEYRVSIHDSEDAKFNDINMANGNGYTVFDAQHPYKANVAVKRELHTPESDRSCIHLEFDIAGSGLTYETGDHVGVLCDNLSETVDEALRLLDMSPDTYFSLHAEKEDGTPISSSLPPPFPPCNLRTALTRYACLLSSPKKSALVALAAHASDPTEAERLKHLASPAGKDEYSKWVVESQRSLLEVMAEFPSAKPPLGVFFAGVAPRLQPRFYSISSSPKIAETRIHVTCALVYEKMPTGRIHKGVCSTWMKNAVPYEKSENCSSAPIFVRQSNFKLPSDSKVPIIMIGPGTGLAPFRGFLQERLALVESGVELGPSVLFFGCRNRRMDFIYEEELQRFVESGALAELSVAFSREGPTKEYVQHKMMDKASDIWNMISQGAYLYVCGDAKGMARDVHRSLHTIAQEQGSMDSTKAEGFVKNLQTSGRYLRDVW

T1 sequence (Q6VMV8 whole entry S142A): as the sequence (Q6VMV8 whole entry F133A) above, with A133F, S142A counted along it

Structure (SMILES) | whole-cell conversion, HPLC [1] | whole-cell conversion, HPLC [2] | whole-cell conversion, HPLC [3]
O=C1C[C@@H](c2ccc(O)c(O)c2)Oc2cc(O)cc(O)c21 [(2S)-eriodictyol] | three mutants (F115A, F133A, and S142A), which displayed significantly higher conversion rates | three mutants (F115A, F133A, and S142A), which displayed significantly higher conversion rates | –
O=C1C[C@@H](c2ccc(O)cc2)Oc2cc(O)cc(O)c21 [(2S)-naringenin] | – | – | the one harboring trThF3′H and CPR exhibited the highest (2S)-eriodictyol production
